Activity calls are given as the source filed them. The rule behind the calls is not given here.
Columns and labels:
[1] = target: T1, Transitional endoplasmic reticulum ATPase (Homo sapiens, UniProt P55072); assay: Inhibition of p97 (unknown origin) ATPase activity up to 200 uM after 10 mins by malachite green dye based visible spectrophotometry
Target sequence in this assay (P55072 2-806 limits assumed): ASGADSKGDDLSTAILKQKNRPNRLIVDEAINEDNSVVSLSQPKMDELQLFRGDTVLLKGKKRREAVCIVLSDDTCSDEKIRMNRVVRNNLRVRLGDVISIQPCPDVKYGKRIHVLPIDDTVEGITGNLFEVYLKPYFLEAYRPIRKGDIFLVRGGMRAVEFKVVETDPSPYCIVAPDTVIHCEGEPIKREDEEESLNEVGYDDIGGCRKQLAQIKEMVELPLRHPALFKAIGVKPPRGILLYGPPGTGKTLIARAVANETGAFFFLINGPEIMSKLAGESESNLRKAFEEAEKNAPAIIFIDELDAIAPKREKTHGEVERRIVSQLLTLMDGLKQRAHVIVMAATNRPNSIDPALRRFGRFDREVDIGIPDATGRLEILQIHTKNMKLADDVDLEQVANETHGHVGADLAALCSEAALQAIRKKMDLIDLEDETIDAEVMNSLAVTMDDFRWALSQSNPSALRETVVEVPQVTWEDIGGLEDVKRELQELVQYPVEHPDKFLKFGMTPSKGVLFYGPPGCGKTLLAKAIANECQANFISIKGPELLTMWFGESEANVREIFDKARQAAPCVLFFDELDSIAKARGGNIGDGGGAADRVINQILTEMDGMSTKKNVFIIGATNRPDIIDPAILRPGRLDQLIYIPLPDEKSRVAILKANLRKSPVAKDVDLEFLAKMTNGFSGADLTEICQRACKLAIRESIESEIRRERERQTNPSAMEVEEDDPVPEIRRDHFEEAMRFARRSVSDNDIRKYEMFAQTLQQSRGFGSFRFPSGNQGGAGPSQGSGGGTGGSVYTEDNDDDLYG

[2] = target: T1, Transitional endoplasmic reticulum ATPase; assay: Inhibition of p97 (unknown origin) ATPase activity after 10 mins by malachite green dye based visible spectrophotometry
Target sequence in this assay (P55072 whole entry): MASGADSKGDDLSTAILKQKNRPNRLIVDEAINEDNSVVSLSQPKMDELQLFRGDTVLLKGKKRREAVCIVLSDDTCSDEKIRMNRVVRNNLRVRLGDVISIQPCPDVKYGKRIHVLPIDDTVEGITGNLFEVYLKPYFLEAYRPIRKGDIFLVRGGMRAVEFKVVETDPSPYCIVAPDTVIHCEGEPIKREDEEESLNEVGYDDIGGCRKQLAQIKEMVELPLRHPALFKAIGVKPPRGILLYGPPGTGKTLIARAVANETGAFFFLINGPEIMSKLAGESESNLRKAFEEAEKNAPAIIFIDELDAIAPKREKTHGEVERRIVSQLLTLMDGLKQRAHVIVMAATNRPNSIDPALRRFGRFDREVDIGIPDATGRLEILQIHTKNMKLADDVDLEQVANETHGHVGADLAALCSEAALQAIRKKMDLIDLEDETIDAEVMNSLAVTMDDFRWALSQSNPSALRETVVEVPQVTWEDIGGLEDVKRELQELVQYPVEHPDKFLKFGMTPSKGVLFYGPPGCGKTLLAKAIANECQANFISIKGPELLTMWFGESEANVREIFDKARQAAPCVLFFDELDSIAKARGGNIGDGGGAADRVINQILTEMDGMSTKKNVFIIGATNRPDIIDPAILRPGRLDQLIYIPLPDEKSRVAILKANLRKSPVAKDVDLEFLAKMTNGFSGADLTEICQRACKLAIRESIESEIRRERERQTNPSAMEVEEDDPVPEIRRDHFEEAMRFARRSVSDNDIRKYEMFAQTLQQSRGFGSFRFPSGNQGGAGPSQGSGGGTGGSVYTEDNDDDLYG

[3] = target: Transitional endoplasmic reticulum ATPase (Homo sapiens, UniProt P55072, C209A); assay: Inhibition of p97-C209A mutant (unknown origin) after 10 mins by malachite green dye based visible spectrophotometry
Sequence of Transitional endoplasmic reticulum ATPase (Homo sapiens, UniProt P55072, C209A) (P55072 2-806 C209A limits assumed): as the sequence (P55072 2-806 limits assumed) above, with C208A counted along it

[4] = target: Transitional endoplasmic reticulum ATPase (Homo sapiens, UniProt P55072, C522A); assay: Inhibition of p97-C522A mutant (unknown origin) after 10 mins by malachite green dye based visible spectrophotometry
Sequence of Transitional endoplasmic reticulum ATPase (Homo sapiens, UniProt P55072, C522A) (P55072 2-806 C522A limits assumed): as the sequence (P55072 2-806 limits assumed) above, with C521A counted along it

[5] = target: ATP-dependent clpX-like chaperone, mitochondrial (Homo sapiens) (UniProt O76031); assay: Inhibition of type 1 AAA+ chaperone ClpX (unknown origin) up to 200 uM
Sequence of ATP-dependent clpX-like chaperone, mitochondrial (Homo sapiens) (O76031 whole entry): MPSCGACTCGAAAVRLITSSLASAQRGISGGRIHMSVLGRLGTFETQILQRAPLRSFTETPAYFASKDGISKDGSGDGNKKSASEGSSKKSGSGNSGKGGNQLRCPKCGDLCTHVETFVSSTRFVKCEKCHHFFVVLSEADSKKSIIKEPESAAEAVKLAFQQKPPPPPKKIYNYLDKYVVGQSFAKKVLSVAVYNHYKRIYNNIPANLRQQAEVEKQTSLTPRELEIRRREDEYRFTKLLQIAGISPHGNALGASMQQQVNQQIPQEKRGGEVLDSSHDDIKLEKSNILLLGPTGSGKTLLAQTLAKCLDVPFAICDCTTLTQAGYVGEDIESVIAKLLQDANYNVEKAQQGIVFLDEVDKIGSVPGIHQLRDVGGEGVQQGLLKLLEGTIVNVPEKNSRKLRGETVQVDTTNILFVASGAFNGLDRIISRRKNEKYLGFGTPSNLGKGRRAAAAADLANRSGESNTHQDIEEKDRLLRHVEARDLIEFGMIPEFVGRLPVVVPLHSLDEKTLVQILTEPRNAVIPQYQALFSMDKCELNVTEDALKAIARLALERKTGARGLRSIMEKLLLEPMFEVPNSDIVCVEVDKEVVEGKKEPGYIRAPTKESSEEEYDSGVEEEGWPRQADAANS

[6] = target: Vesicle-fusing ATPase (Homo sapiens) (UniProt P46459); assay: Inhibition of type 2 AAA+ N-ethylmaleimide sensitive factor (unknown origin) up to 200 uM
Sequence of Vesicle-fusing ATPase (Homo sapiens) (P46459 whole entry, the tested form may be a part): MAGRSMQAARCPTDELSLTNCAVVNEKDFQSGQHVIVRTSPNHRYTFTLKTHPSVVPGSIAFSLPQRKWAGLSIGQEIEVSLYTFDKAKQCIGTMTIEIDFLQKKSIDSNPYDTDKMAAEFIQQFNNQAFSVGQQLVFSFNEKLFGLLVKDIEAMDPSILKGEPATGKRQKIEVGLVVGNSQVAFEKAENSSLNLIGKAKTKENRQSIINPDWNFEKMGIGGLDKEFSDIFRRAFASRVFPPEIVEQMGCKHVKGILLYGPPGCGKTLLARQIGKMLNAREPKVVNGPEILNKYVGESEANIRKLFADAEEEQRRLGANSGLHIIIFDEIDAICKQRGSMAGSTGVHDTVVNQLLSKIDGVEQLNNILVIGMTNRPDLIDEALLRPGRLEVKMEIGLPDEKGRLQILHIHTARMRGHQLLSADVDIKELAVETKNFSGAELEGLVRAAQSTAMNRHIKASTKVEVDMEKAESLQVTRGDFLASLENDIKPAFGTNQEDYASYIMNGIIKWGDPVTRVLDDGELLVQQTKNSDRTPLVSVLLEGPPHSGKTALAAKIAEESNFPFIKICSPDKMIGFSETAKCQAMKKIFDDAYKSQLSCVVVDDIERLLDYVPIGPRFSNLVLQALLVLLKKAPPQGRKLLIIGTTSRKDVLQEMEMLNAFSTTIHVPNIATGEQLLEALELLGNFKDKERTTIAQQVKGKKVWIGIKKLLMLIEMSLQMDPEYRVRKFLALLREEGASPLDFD

[7] = target: T1, Transitional endoplasmic reticulum ATPase; assay: Inhibition of p97 (unknown origin) ATPase in HEK293 cells expressing UbG76VGFP fusion protein assessed as level of UbG76VGFP rescued by measuring GFP fluorescence loss by flow cytometry; format: cell-based
Target sequence in this assay (P55072 2-806 limits assumed): as the sequence (P55072 2-806 limits assumed) above

[8] = target: T1, Transitional endoplasmic reticulum ATPase; assay: Inhibition of p97 (unknown origin) ATPase in HEK293 cells expressing T cell receptor alpha-GFP assessed as level of T cell receptor alpha-GFP rescued by flow cytometry; format: cell-based
Target sequence in this assay (P55072 2-806 limits assumed): as above

[9] = target: T1, Transitional endoplasmic reticulum ATPase; conditions: 200 uM
Target sequence in this assay (P55072 2-806 limits assumed): as above
Description: Inhibition of p97 cysteine-less mutant (unknown origin) at 200 uM after 10 mins by malachite green dye based visible spectrophotometry

[10] = target: T1, Transitional endoplasmic reticulum ATPase; conditions: 100 uM
Target sequence in this assay (P55072 2-806 limits assumed): as above
Description: Reversible inhibition of p97 (unknown origin) ATPase activity at 100 uM after prolonged incubation of 6 hrs followed by dialysis for 2 hrs by malachite green dye based visible spectrophotometry

[11] = target: chaperonin GroEL (Escherichia coli) (UniProt P0A6F5); assay: Inhibition of Escherichia coli chaperonin GroEL up to 200 uM
Sequence of chaperonin GroEL (Escherichia coli) (P0A6F5 whole entry, looked up): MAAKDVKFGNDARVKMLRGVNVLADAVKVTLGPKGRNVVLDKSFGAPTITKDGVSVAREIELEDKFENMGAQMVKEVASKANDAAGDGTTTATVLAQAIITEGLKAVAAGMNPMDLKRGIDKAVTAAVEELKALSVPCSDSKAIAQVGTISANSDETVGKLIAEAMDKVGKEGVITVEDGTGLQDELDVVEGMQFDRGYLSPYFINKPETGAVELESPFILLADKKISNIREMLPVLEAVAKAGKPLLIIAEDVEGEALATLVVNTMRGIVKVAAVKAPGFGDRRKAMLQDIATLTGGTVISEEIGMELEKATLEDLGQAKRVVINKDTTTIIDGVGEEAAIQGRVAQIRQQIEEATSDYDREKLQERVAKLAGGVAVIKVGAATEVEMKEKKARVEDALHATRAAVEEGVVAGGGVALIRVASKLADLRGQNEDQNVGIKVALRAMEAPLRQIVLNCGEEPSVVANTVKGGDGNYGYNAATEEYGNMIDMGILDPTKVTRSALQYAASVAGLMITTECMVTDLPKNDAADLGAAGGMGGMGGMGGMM

[12] = target: T1, Transitional endoplasmic reticulum ATPase; assay: Reversible inhibition of p97 (unknown origin) ATPase activity after prolonged incubation followed by dialysis
Target sequence in this assay (P55072 2-806 limits assumed): as the sequence (P55072 2-806 limits assumed) above

SMILES: C=C1OC(=O)[C@@]2(C1=O)[C@H](/C=C/C=C/CCC)C=C[C@@H](OC(C)=O)[C@@H]2OC(C)=O
- inhibition [1]: inactive

SMILES: C=C1OC(=O)C2(C1=O)[C@H](/C=C/C=C/CCC)C=C[C@@H](O)[C@@H]2O (mixture of isomers)
- IC50 [2]: 31.2 µM
- IC50 [3]: 18 µM
- IC50 [4]: 26.3 µM
- inhibition [5]: inactive
- inhibition [6]: inactive
- inhibition [7]: Dose-dependent effect
- inhibition [8]: Dose-dependent effect
- inhibition [9]: inactive
- inhibition [10]: Active
- inhibition [11]: inactive

SMILES: C=C1OC(=O)[C@]2(C1=O)[C@H](/C=C/C=C/CCC)C=C[C@@H](OC(C)=O)[C@@H]2OC(C)=O
- inhibition [1]: inactive

SMILES: C[C@H]1CCC/C=C/C(=O)c2c(O)cc(O)cc2CC(=O)O1
- inhibition [12]: inactive

— ChEMBL document CHEMBL3797126, “Oxaspirol B with p97 Inhibitory Activity and Other Oxaspirols from Lecythophora sp. FL1375 and FL1031, Endolichenic Fungi Inhabiting Parmotrema tinctorum and Cladonia evansii” (J Nat Prod, 2016)
